The target of one experiment is T1, human MT1 receptor (Homo sapiens, UniProt P48039).
T1 construct: expressed in transfected cells
Briefly: Activation of human MT1 receptor in receptor-expressing cells, intracellular Ca2+ by FLIPR. Type of experiment: cell-based.

In a further experiment the test system is rat. As to the kind of experiment: Measurement test of electroencephalogram in rat (sleep-awake cycle). Type of experiment: in vivo. As to conditions: oral. From the text: After the completion of a quarantine period, the animals showing no abnormal health condition were subjected to an electroencephalogram electrode chronic implantation surgery with reference to brain atlas of Pellegrino (Plenum Press, New York (1979)), or the like. Under anesthesia with pentobarbital sodium, the rat was calibrated in a brain stereotaxic apparatus. In the frontal cortex, a monopolar silver ball electrode having a diameter of the tip of about 1 mm was placed on a hard film of the brain. Into the hippocampus, a laminated bipolar electrodes made of stainless steel was stuck. The reference electrode was screwed around the olfactory brain. Further, as for the electromyogram measurement, the lead wire was implanted in the both electrodes about 1 cm between the electrodes in the neck portion. The other end was exposed to the head portion subcutaneously. The electrodes and the lead wires were subjected to soldering with connector sockets and fixed to the skull with a dental resin or the like.
The rats were accommodated in a measurement cage under rat feeding and water supply on the morning of the day of administration, and accustomed to the measurement environment. After measuring the weight using an electronic scale balance, a lead wire and a connector socket were connected 30 minutes or more before the start of the electroencephalogram measurement, and the rat was accustomed in the measurement state under no anesthesia and no custody. The test compounds were intraperitoneally or orally administered to the rats and the electroencephalogram was measured continuously until 6 hours after the administration.
Ramelteon: solvent, 0.1 mg/kg, 1 mg/kg, and 10 mg/kg; intraperitoneal administration
Example 1: solvent, 3 mg/kg, 30 mg/kg, and 300 mg/kg; oral administration
Example 6: solvent, 10 mg/kg, 30 mg/kg, and 300 mg/kg; oral administration
The electrical signals of electroencephalogram and of electromyogram were applied to an electroencephalogram system and an electroencephalogram frequency analysis program of a personal computer was used to acquire the wave form of the electroencephalogram from the electroencephalograph system. In addition, the image signals of the electroencephalogram waveform were applied to an EEG video system and recorded on DVD-R using a DVD recorder. The behavior observation was carried out through a video camera at the same time as the electroencephalogram measurement and the images were also recorded on DVD-R using DVD recorder.
The presence or absence of abnormality in the electroencephalogram waveform in up to 6 hours from immediately after the administration, to each animal, respectively, was observed.
The analysis of a sleep-awake cycle was carried out using a sleep stage display-supporting program (MTS50061B, Japan Santec Corporation) based on the electroencephalogram waveforms acquired with an electroencephalogram frequency analysis program. Using the index of electroencephalogram, electromyogram, and behavior, the sleep steps were classified into an awake phase, a rest phase, a slow wave light sleep (S.W.L.S.) phase, a slow wave deep sleep (S.W.D.S.) phase, and a fast wave sleep (F.W.S., REM sleep) phase. Further, the rest phase, the slow wave light sleep phase, and the slow wave deep sleep phase were summed to determine a slow wave sleep (S.W.S., Non-REM sleep) phase. […] As the assessment criteria in the respective sleep steps, the criteria described in Japanese Pharmacological Journal 84, 25-89 (1984) were used.

A further experiment concerns the target T2, human MT2 receptor (Homo sapiens, UniProt P49286).
T2 construct: expressed in transfected cells
T2 sequence (P49286 1-362): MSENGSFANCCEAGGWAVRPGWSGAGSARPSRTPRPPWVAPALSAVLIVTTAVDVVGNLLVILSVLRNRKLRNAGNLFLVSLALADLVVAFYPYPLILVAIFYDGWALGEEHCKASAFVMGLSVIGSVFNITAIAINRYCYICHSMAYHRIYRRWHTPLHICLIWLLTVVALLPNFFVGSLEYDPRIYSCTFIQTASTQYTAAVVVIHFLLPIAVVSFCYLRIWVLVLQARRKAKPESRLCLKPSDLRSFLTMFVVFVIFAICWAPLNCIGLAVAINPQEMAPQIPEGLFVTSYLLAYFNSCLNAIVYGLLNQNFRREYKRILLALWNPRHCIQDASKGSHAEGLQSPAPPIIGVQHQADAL
As to the kind of experiment: Activation of human MT2 receptor in receptor-expressing cells, intracellular Ca2+ by FLIPR. Type of experiment: cell-based.

The subject of the next experiment is SD female rats. As to the kind of experiment: Effect of test compound on urethral pressure in anesthetized rats. Type of experiment: in vivo, rat. Conditions: dose of 0.01 mg/kg. From the text:
SD female rats were anesthetized with urethane and subjected to laparotomy. Then, the bladder apex was incised and a catheter was inserted from the bladder apex. Further, the catheter tip was ligated and fixed to be located in the proximal urethra portion. The catheter was connected to a pressure transducer and an infusion pump. Further, a catheter for administrating the compound was fitted into the femoral vein. Physiological saline was continuously infused into the urethra and the perfusion pressure in the urethra was measured. After the urethral pressure was stabilized, the test compound that had been dissolved in physiological saline, or physiological saline including 5% dimethylacetamide and 0.5% Cremophor was administered intravenously at 0.01 mg/kg or 0.1 mg/kg, and a change in urethral pressures was measured.
Further, the results of administering an active metabolite of midodrine (ST-1059: purchased from CHEMIZON) (J. Urology, 118, 980-982 (1977)) which is an α1 adrenoceptor agonist and is confirmed to have a clinical effect on stress urinary incontinence at doses, 0.01 mg/kg and, 0.1 mg/kg in rats, presumed to correspond to the clinical doses are referenced and shown in the Tables below.
The increment value in the urethral pressures of ramelteon and the Example compounds of the present invention at the time of administration are shown in Table 3. Ex represents Example No. of the test compound and N.T represents Not Tested.

The mark [1] stands for this setting: maximum reaction by ramelteon taken as 100%.

T1 sequence (P48039 whole entry): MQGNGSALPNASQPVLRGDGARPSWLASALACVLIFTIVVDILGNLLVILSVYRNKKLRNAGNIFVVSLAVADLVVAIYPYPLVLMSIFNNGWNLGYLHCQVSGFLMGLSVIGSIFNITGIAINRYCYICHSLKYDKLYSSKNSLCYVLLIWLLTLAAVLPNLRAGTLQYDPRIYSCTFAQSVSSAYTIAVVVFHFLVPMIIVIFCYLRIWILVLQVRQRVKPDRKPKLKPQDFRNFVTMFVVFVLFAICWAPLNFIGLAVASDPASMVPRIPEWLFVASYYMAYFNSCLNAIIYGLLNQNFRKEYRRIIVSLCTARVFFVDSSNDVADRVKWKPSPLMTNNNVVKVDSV

In general, EC50 refers to the midpoint of the concentration-response curve. The low end stands for a more potent agent, the high end for a less potent agent. Usually Emax stands for the maximal effect, on the per cent scale that the assay sets. In the case of `CC(=O)NCCc1c[nH]c2cc(F)c(OCCOc3ccn(C)n3)cc12` [Example 6, N-[2-(6-fluoro-5-{2-[(1-methyl-1H-pyrazol-3-yl)oxy]ethoxy}-1H-indol-3-yl)ethyl]acetamide], the EC50 at human MT1 receptor (HEK293EBNA1 cells stably expressing human MT1 and Gq/i chimeric G protein, Ca2+ FLIPR) was 7.5 nM; on human MT2 receptor (HEK293 cells stably expressing human MT2 and Gq/i chimeric G protein, Ca2+ FLIPR), 10 nM. Also, the Emax is 103% on human MT1 receptor (setting [1]) and 119% on human MT2 receptor (setting [1]). For the same compound, the “occupancy in the respective sleep steps of electroencephalogram” value in the experiment with rat (10 mg/kg and 30 mg/kg) is reported as “no change in the occupancy in the respective sleep steps of electroencephalogram could be seen”. The sleep action entry with rat (10 mg/kg and 30 mg/kg) is reported as “there was no sleep action”. The electroencephalogram entry with rat (300 mg/kg) is reported as “a variation in the electroencephalogram was observed”. In the experiment on SD female rats, the “urethral pressure increasing action” value is “good urethral pressure increasing action”.
